These results are taken from patent USRE38329E1, “Chelated complexes of paramagnetic metals with low toxicity” (Bracco Imaging S.p.A., priority 1997, dated 2003).

For the data set, the system named is mouse. In words: DL50 after intracerebroventricular administration to the mouse (neurotoxicity / molecular toxicity). It counts as in vivo. The text has this:
DL50 values after intracerebral administration (intracisternal, intracerebroventricular), for example in the mouse and in the rat, can therefore be taken as a highly sensitive index of the molecular toxicity of the contrast agent (Toxicology Letters, cited ref.). In particular, the intracerebroventricular administration seems to be the most sensitive to discriminate the neurotoxicity of the compounds (Proceedings of the 10th National Congress of the Italian Toxicology Society, Pavia, September 21-24th, 100, 1994).
The present invention relates to chelated complexes of paramagnetic metals characterized by an extremely favourable neurotoxicity profile. […] The compound described in example 1 (gadolinium complex of 10-[2-[[2-(2-hydroxyethoxy)ethyl]amino]-2-oxoethyl]-α,α′,α″-tris(hydroxymethyl)-1,4,7,10-tetraazacyclododecane-1,4,7-triacetic) acid has, for example, a DL50 of 0.23 mmol/kg after intracerebroventricular administration to the mouse. The compounds described in example 2 (gadolinium complex of α,α′,α″-tris (hydroxymethyl)-10-(2-hydroxypropyl)-1,4,7,10-tetraazacyclododecane-1,4,7-triacetic acid) and in Example 4 (Na^+Gd[THM-DOTA]^−) have a very good tolerability as well, with a DL50, after intracerebroventricular administration to the mouse, of 0.170 and 0.150 mmol/kg, respectively; the corresponding value for Gd-DOTA being 0.064 mmol/kg.

Structures are written as SMILES.

On to `O=C([O-])CN1C[C@@H](CO)N(CC(=O)[O-])C[C@@H](CO)N(CC(=O)[O-])C[C@@H](CO)N(CC(=O)[O-])C[C@H]1CO.[Gd+3].[Na+]` (relative stereo) [Example 4, Gadolinium complex of [2S-(2R*,5R*,8R*,11R*)]-2,5,8,11-tetra(hydroxymethyl)-1,4,7,10-tetraazacyclododecane-1,4,7,10-tetraacetic acid sodium salt (1:1)], for which the “DL50 after intracerebroventricular administration to the mouse” value (“DL50” below) came out at 0.150 mmol/kg.

Regarding `O=C(CN1CCN(C(CO)C(=O)[O-])CCN(C(CO)C(=O)[O-])CCN(C(CO)C(=O)[O-])CC1)NCCOCCO.[Gd+3]` (stereo not drawn) [Example 1, Gadolinium complex of 10-[2-[[2-(2-hydroxyethoxy)ethyl]amino]-2-oxoethyl]-α,α′,α″-tris(hydroxymethyl)-1,4,7,10-tetraazacyclododecane-1,4,7-triacetic acid], the “DL50” value stood at 0.23 mmol/kg.

`O=C([O-])CN1CCN(CC(=O)[O-])CCN(CC(=O)[O-])CCN(CC(=O)[O-])CC1.[Gd+3]` [Gd-DOTA, reference compound]: the “DL50” value is 0.064 mmol/kg.
